From patent publication US6440471B2, “Plant proanthocyanidin extracts” (JLB, Inc., priority 1999, dated 2002)
“Also recorded” adds a separate entry of the source.

These molecules were tested on adhesion of bacteria (assay: Anti-adhesion assay (not further specified)).
Assay type: cell-based
Excerpt: Further, quercetin and myricetin, which both share the catechin or epicatechin-like nucleus with leucocyanins but have R^2=H or OH, have been tested in the anti-adhesion assay and show no activity. […] Further, as described previously herein, one of the anti-adhesion assays described herein compares the ability of a substance to inhibit binding relative to mannose inhibition of such adhesion, and it is therefore believed that a carbohydrate moiety is involved in conferring anti-adhesion activity.
For O=c1c(O)c(-c2ccc(O)c(O)c2)oc2cc(O)cc(O)c12 [quercetin], the anti-adhesion activity was “no activity”.
myricetin-3-pyranoside was tested, and the anti-adhesion activity was “some anti-adhesion activity; also recorded: does have anti-adhesion activity”.
O=c1c(O)c(-c2cc(O)c(O)c(O)c2)oc2cc(O)cc(O)c12 [myricetin] was tested, and the anti-adhesion activity was “no activity”.
